Each structure is given as a SMILES string.

Test in all cases: KiNativ chemical proteomics profiling in HeLa and PC3 cell lysates
Common to all, as to format: binding

The target of test [1] is T1, selected panels of kinases in HeLa and PC3 cell lysates (Homo sapiens, UniProt P42680).
T1 construct: endogenous in cells; host or cells: HeLa and PC3 cell lysates
The settings on record: 10 uM; TEC; peptide […]kFPVK; proteome HEL; labeling site Activation Loop.

The target of test [2] is T2, selected panels of kinases in HeLa and PC3 cell lysates (Homo sapiens, UniProt Q9H2G2).
T2 construct: endogenous in cells; host or cells: HeLa and PC3 cell lysates
T2 sequence (Q9H2G2 whole entry): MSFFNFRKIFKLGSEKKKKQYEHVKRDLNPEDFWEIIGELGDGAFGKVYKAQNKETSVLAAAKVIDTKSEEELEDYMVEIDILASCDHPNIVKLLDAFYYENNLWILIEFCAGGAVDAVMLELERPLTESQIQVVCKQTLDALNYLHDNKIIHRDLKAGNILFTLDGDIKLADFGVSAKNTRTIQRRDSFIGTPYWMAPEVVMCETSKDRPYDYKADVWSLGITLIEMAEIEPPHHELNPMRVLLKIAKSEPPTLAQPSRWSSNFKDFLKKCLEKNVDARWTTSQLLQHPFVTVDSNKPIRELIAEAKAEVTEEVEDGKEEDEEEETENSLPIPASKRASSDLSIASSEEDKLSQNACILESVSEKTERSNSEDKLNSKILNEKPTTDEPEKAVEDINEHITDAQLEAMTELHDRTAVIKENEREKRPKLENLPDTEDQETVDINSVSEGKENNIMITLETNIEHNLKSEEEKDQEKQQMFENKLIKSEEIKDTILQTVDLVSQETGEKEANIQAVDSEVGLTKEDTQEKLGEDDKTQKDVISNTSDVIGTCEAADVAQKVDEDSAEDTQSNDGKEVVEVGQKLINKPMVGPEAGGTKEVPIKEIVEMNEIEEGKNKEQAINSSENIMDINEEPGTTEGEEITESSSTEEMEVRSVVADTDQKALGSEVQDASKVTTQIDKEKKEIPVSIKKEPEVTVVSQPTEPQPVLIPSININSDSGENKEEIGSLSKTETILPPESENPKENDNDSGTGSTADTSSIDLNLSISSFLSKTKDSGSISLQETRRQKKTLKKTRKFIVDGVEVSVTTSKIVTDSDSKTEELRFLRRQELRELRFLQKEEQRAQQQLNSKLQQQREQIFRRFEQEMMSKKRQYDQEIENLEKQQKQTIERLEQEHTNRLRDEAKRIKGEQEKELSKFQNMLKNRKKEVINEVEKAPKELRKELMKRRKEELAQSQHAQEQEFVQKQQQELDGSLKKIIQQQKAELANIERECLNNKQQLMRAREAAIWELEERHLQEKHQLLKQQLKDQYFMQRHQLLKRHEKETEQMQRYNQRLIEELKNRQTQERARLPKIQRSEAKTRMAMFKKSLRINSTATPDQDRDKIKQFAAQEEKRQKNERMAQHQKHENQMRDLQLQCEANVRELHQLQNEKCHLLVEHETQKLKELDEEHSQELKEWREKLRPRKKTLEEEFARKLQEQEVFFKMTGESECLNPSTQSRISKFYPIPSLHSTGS
As to conditions: 10 uM, SLK.

Test [3] concerns the target T3, selected panels of kinases in HeLa and PC3 cell lysates (Homo sapiens, UniProt Q9Y2H1).
T3 construct: endogenous in cells; host or cells: HeLa and PC3 cell lysates
As to conditions: 10 uM; proteome PC3; peptide DTGHIYAMkILR; labeling site Lys1.

Test [4] concerns the target T4, selected panels of kinases in HeLa and PC3 cell lysates (Homo sapiens, UniProt P08581).
T4 construct: endogenous in cells; host or cells: HeLa and PC3 cell lysates
The settings on record: 10 uM, proteome PC3, labeling site Activation Loop.

For test [5], the target named is T5, selected panels of kinases in HeLa and PC3 cell lysates (Homo sapiens, UniProt Q13464).
T5 construct: endogenous in cells; host or cells: HeLa and PC3 cell lysates
As to conditions: 10 uM; ROCK1; peptide kLQLELNQER; proteome PC3; labeling site Other.

Test [6] addresses T6, selected panels of kinases in HeLa and PC3 cell lysates (Homo sapiens, UniProt Q13418).
T6 construct: endogenous in cells; host or cells: HeLa and PC3 cell lysates
T6 sequence (Q13418 1-452): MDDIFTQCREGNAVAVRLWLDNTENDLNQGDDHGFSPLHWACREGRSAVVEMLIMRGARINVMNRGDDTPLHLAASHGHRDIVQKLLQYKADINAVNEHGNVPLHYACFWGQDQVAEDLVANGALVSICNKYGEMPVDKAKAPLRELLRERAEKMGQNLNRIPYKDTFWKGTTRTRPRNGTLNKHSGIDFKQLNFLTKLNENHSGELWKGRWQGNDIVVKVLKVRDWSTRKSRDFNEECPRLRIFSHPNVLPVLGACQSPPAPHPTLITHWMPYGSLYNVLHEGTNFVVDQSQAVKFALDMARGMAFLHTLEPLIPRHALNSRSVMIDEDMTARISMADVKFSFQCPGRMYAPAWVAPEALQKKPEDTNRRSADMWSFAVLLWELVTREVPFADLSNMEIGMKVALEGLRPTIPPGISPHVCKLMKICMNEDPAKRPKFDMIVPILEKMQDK
The settings on record: 10 uM.

For test [7], the target named is T7, selected panels of kinases in HeLa and PC3 cell lysates (Homo sapiens, UniProt Q15759).
T7 construct: endogenous in cells; host or cells: HeLa and PC3 cell lysates
T7 sequence (Q15759 whole entry): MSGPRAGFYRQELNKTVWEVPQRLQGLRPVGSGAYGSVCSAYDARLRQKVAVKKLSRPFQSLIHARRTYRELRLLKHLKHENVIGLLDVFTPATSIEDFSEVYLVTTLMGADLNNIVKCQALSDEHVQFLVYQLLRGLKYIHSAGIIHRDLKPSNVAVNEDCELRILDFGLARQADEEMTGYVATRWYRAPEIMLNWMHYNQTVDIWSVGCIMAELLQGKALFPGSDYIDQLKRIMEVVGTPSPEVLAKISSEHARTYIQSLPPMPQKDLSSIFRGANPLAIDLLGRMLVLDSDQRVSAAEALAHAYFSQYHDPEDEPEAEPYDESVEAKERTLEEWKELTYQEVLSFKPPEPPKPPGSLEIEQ
The settings on record: 10 uM; proteome PC3; peptide QELNkTVWEVPQR; labeling site Other.

The target of test [8] is T8, selected panels of kinases in HeLa and PC3 cell lysates (Homo sapiens, UniProt Q9NZJ5).
T8 construct: endogenous in cells; host or cells: HeLa and PC3 cell lysates
T8 sequence (Q9NZJ5 30-1116): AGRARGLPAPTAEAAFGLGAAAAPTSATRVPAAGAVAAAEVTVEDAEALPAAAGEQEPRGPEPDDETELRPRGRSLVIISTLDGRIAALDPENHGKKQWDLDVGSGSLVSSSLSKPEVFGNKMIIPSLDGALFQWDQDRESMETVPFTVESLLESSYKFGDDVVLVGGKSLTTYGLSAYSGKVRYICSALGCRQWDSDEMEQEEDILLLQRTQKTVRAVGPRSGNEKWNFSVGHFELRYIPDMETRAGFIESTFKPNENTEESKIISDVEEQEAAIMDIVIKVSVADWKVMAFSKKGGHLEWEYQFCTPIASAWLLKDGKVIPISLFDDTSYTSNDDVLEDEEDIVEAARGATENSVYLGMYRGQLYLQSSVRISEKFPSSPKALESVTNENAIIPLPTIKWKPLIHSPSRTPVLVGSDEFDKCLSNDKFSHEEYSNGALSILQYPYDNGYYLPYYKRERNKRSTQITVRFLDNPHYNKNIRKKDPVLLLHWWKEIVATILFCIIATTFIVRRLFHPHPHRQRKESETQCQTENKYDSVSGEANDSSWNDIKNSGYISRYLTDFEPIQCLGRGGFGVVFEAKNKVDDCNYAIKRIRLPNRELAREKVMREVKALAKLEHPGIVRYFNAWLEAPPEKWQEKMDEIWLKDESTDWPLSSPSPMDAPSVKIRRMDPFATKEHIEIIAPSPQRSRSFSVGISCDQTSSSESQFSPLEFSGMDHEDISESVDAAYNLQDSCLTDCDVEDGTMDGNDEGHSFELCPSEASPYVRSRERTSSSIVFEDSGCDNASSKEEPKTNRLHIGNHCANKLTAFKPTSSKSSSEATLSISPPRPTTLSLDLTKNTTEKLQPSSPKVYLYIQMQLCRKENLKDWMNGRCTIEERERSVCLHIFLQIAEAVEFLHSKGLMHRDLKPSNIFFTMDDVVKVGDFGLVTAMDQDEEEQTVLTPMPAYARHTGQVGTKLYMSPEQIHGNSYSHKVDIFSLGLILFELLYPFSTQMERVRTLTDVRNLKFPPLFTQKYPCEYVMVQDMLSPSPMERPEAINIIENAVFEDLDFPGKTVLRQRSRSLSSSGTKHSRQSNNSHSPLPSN
As to conditions: 10 uM, PEK, peptide DLk[…], labeling site Lys2.

Test [9] addresses T9, selected panels of kinases in HeLa and PC3 cell lysates (Homo sapiens, UniProt Q6PHR2).
T9 construct: endogenous in cells; host or cells: HeLa and PC3 cell lysates
As to conditions: 10 uM; ULK3; peptide EVVAIkCVAK; proteome HEL; labeling site Lys1.

Test [10] has as its target T10, selected panels of kinases in HeLa and PC3 cell lysates (Homo sapiens, UniProt Q58A45).
T10 construct: endogenous in cells; host or cells: HeLa and PC3 cell lysates
As to conditions: 10 uM; PAN3; peptide VMDPTkILITGK; proteome HEL.

Test [11] deals with T11, selected panels of kinases in HeLa and PC3 cell lysates (Homo sapiens, UniProt P29317).
T11 construct: endogenous in cells; host or cells: HeLa and PC3 cell lysates
T11 sequence (P29317 24-976): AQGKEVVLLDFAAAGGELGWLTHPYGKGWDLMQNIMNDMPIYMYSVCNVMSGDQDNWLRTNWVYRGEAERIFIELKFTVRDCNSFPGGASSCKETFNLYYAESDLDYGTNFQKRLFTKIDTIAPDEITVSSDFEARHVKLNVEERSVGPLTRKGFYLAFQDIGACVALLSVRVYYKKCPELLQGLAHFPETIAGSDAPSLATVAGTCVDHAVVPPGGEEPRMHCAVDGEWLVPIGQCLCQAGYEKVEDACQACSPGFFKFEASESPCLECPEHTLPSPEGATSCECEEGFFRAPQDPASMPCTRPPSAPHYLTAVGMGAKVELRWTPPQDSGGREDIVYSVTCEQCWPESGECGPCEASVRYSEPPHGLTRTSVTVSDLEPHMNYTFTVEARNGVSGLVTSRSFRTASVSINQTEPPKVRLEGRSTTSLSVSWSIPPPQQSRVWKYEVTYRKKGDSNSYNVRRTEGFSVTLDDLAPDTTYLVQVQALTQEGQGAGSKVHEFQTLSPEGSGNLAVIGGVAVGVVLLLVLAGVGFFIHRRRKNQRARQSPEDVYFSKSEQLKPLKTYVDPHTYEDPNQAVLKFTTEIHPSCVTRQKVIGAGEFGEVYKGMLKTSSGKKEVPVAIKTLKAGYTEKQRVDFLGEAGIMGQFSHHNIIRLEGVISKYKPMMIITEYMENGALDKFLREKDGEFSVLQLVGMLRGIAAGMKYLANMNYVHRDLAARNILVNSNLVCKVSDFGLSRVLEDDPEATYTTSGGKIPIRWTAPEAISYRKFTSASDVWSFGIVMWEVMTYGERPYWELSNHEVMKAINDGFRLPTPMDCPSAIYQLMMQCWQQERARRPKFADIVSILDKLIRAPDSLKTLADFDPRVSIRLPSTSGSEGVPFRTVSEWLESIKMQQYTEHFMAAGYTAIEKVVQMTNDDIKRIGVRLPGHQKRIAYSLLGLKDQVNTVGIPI
As to conditions: 10 uM, proteome PC3.

The target of test [12] is T12, selected panels of kinases in HeLa and PC3 cell lysates (Homo sapiens, UniProt P42338).
T12 construct: endogenous in cells; host or cells: HeLa and PC3 cell lysates
The settings on record: 10 uM; PIK3CB; peptide […]k[…]; proteome PC3; labeling site ATP.

Where [13] appears, read: peptide DLk[…], proteome HEL, labeling site Lys2.
Setting [14] is: peptide DLk[…], proteome PC3, labeling site Lys2.
Setting [15] is: peptide ETSVLAAAkVIDTK, proteome PC3, labeling site Lys1.
[16] abbreviates: proteome HEL, peptide WQGNDIVVkVLK, labeling site Lys1.
The mark [17] stands for this setting: proteome PC3, peptide ISMADVkFSFQCPGR, labeling site Protein Kinase Domain.
[18] abbreviates: proteome PC3, peptide WQGNDIVVkVLK, labeling site Lys1.
The mark [19] stands for this setting: peptide EVPVAIkTLK, labeling site Lys1.
[20] abbreviates: peptide […]kIPIR, labeling site Activation Loop.

T4 sequence (P08581 25-1390): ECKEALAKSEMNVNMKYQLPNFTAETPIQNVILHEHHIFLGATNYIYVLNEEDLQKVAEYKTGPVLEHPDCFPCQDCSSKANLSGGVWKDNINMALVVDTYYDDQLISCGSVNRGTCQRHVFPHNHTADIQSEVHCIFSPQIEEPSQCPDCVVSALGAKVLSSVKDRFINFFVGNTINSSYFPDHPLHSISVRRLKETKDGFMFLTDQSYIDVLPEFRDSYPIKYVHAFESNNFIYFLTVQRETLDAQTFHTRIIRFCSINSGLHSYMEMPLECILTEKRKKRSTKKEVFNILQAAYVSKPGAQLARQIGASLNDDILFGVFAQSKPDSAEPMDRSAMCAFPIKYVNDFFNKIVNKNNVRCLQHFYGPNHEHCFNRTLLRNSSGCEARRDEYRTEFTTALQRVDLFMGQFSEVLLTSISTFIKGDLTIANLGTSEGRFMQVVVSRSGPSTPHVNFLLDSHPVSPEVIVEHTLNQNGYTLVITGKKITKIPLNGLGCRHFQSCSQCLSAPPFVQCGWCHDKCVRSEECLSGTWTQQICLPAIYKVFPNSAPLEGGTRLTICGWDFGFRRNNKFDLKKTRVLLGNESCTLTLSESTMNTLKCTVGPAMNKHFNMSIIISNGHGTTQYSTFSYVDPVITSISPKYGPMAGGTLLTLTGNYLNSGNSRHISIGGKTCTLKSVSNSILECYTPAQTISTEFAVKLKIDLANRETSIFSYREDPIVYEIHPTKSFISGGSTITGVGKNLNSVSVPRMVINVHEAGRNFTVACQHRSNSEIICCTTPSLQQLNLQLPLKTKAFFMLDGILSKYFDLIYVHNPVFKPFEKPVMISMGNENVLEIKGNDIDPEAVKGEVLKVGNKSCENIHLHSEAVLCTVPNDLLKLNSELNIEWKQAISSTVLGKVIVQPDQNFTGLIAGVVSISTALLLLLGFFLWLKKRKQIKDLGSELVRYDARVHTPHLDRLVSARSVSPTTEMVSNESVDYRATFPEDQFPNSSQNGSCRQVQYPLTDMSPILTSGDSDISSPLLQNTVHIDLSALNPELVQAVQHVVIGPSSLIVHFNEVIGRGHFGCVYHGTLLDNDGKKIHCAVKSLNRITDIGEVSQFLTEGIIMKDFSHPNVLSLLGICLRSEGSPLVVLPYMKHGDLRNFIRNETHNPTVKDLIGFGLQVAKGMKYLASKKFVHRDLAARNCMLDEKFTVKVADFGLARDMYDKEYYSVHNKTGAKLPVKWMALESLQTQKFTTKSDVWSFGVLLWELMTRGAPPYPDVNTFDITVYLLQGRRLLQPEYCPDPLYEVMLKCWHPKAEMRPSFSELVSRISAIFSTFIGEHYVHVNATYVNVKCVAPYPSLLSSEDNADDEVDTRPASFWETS
T1 sequence (P42680 whole entry): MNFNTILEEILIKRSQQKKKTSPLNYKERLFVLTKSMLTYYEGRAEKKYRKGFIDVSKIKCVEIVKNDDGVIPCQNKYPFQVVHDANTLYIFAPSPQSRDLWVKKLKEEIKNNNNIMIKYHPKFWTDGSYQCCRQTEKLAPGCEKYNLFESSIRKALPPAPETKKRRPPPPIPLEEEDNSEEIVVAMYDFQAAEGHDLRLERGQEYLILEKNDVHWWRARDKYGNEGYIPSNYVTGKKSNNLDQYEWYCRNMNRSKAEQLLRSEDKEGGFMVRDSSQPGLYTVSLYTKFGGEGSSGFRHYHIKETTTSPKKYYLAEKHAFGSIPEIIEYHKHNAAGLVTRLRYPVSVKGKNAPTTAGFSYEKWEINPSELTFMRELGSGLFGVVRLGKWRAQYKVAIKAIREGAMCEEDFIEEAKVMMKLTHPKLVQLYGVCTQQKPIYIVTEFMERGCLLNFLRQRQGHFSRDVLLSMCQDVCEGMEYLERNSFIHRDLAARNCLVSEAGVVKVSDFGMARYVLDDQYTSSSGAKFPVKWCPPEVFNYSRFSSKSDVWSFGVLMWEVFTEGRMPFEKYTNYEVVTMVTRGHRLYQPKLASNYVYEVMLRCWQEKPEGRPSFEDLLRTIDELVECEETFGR
T9 sequence (Q6PHR2 whole entry): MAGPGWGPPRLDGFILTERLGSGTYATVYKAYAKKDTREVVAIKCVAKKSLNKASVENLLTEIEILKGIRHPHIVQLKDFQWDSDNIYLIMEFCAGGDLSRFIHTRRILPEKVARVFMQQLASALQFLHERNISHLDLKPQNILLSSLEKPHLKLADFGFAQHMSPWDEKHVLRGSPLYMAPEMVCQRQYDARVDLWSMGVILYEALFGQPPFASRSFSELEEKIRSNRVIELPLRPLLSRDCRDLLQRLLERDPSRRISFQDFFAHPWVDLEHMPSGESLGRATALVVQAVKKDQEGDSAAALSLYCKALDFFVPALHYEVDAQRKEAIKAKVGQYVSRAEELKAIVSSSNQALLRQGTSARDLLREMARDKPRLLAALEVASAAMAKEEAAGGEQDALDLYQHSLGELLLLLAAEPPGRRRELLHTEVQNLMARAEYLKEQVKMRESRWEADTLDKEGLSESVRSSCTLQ

In the case of `CCOc1cc(C(=O)N2CCC(N3CCN(C)CC3)CC2)ccc1Nc1ncc2c(n1)N(C1CCCC1)c1ccccc1C(=O)N2C` [Compound 26], the “% Inhibition TEC” value in test [1] amounted to 5.8%. For the same compound, the “% Inhibition SLK” value in [2] (setting [13]) is given as 25.7%; in [2] (setting [14]) it was 2.9%; in [2] (setting [15]), -35.8%. The “% Inhibiton, NDR2” value in [3] is listed as 8.2%. The figures for the “% Inhibiton, MET” value in [4] (peptide DMYDkEYYSVHNK) and in [4] (peptide […]kTGAK) were -12.7% and 9.2%, respectively. For the same compound, in test [5], the “% Inhibition ROCK1” value is reported as -8.1%. The “% Inhibiton, ILK” value in test [6] (setting [16]) was 19.8%; in test [6] (setting [17]) it was 2%; in test [6] (setting [18]), -69.5%. Further, the “% Inhibiton, p38b” value in [7] is on record as 14.6%. For the same compound, the “% Inhibition PEK” value in [8] (proteome HEL) is -23.3%; in test [8] (proteome PC3) it was -4.9%. The “% Inhibition ULK3” value in [9] was 2.5%. The “% Inhibition PAN3” value in [10] was -17.8%. In addition, the “% Inhibiton, EphA2” value in test [11] (setting [19]) is given as -1.4%; in test [11] (setting [20]), -3%. In addition, the “% Inhibition PIK3CB” value in test [12] is -124.1%.

For `COc1cc(C(=O)N2CCC(N3CCN(C)CC3)CC2)ccc1Nc1ncc2c(n1)N(C1CCCC1)c1ccccc1C(=O)N2C` [Compound 25, 11-cyclopentyl-2-((2-methoxy-4-(4-(4-methylpiperazin-1-yl)piperidine-1-carbonyl)phenyl)amino)-5-methyl-5H-benzo[e]pyrimido[5,4-b][1,4]diazepin-6(11H)-one], the “% Inhibition TEC” value in [1] worked out at 8.9%. The “% Inhibition SLK” value in [2] (setting [13]) is listed as 10.4%; in test [2] (setting [14]), -11.4%; in test [2] (setting [15]) it was -17.6%. The “% Inhibiton, NDR2” value in test [3] is on record as -0.235%. For the same compound, the “% Inhibiton, MET” value in test [4] (peptide DMYDkEYYSVHNK) is recorded as -15.9%; in test [4] (peptide […]kTGAK), 4.8%. For the same compound, the “% Inhibition ROCK1” value in test [5] was -4.2%. Moreover, the “% Inhibiton, ILK” value in [6] (setting [16]) is on record as -3.0%; in test [6] (setting [17]), 8.4%; in test [6] (setting [18]), -5.9%. For the same compound, the “% Inhibiton, p38b” value in test [7] came out at 14.5%. The “% Inhibition PEK” value is recorded as 6.4% in test [8] (proteome HEL) and 6.5% in test [8] (proteome PC3). In test [9], the “% Inhibition ULK3” value is on record as -3.7%. In addition, in test [10], the “% Inhibition PAN3” value was -1.7%. Further, the “% Inhibiton, EphA2” value in test [11] (setting [19]) is listed as -0.8%; in test [11] (setting [20]) it was -2.3%. For the same compound, the “% Inhibition PIK3CB” value in test [12] is listed as 0.8%.

Source of the values: PMC3914206.
